Experimental data from ChEMBL document CHEMBL1201862, “PubChem BioAssay data set” (2004).
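Values below derive from 48-hour exposures of cells grown in 96-well plates, with endpoints linearly interpolated between the two concentrations bracketing the appropriate inhibition level. GI50: concentration for 50% inhibition of growth.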 The source made the active and inactive calls. Cut-off read from the data, not from the text of the source: active = GI50 up to about 1.1 µM and inactive = higher.

Columns and labels:
Assay in all cases: inhibition of tumour cell growth, NCI panel, 48 h
MCF7 = system: MCF7
LOX IMVI = system: LOX IMVI
TK-10 = system: TK-10
HOP-62 = system: HOP-62
SK-MEL-28 = system: SK-MEL-28
HCT-15 = system: HCT-15
RPMI-8226 = system: RPMI-8226
SF-539 = system: SF-539
MDA-N = system: MDA-N
IGROV-1 = system: IGROV-1
MOLT-4 = system: MOLT-4
HT-29 = system: HT-29
OVCAR-5 = system: OVCAR-5
786-0 = system: 786-0
K562 = system: K562
SF-268 = system: SF-268
SK-OV-3 = system: SK-OV-3
NCI-H460 = system: NCI-H460
OVCAR-4 = system: OVCAR-4
UO-31 = system: UO-31

| SMILES | GI50 (MCF7) | GI50 (LOX IMVI) | GI50 (TK-10) | GI50 (HOP-62) | GI50 (SK-MEL-28) | GI50 (HCT-15) [µM] | GI50 (RPMI-8226) | GI50 (SF-539) | GI50 (MDA-N) | GI50 (IGROV-1) | GI50 (MOLT-4) | GI50 (HT-29) | GI50 (OVCAR-5) | GI50 (786-0) | GI50 (K562) | GI50 (SF-268) | GI50 (SK-OV-3) | GI50 (NCI-H460) | GI50 (OVCAR-4) | GI50 (UO-31) |
| --- | --- | --- | --- | --- | --- | --- | --- | --- | --- | --- | --- | --- | --- | --- | --- | --- | --- | --- | --- | --- |
| C=C(C)C(=O)CC[C@@H](C)[C@H]1[C@@H](OC2OC(CO)C(O)C(O)C2O)C[C@@]2(C)[C@@H]3C[C@H](O)C4C(C)(C)[C@@H](OC5OC(CO)C(O)C(O)C5O)CC[C@@]45C[C@@]35CC[C@]12C (some centres undefined) | > 100 µM (inactive) | > 100 µM (inactive) | > 100 µM (inactive) | > 100 µM (inactive) | > 100 µM (inactive) | > 100 | > 100 µM (inactive) | 89.9 µM (inactive) | 24.6 µM (inactive) | > 100 µM (inactive) | 62.1 µM (inactive) | > 100 µM (inactive) | > 100 µM (inactive) | > 100 µM (inactive) | 90.6 µM (inactive) | > 100 µM (inactive) | > 100 µM (inactive) | 45.8 µM (inactive) | > 100 µM (inactive) | > 100 µM (inactive) |
| CC(C(=O)OCc1ccccc1)(c1ccco1)N1C(=O)OC(c2ccccc2)C1c1ccccc1 (centres undefined) | > 100 µM (inactive) | 14.7 µM (inactive) | > 100 µM (inactive) | > 100 µM (inactive) | > 100 µM (inactive) | > 100 | 4.37 µM (inactive) | > 100 µM (inactive) | > 51.1 µM (inactive) | > 100 µM (inactive) | 5.05 µM (inactive) | > 100 µM (inactive) | > 100 µM (inactive) | > 100 µM (inactive) | 7.18 µM (inactive) | > 100 µM (inactive) | > 100 µM (inactive) | 26.1 µM (inactive) | > 100 µM (inactive) | 6.34 µM (inactive) |
| C=C(Cl)C(Cl)(CBr)CCC(Br)C(C)(C)Br (centres undefined) | 1.5 µM (inactive) | 15.3 µM (inactive) | 1.49 µM (inactive) | 1.06 µM (active) | 2.95 µM (inactive) | 3.03 | 0.426 µM (active) | 1.99 µM (inactive) | 8.93 µM (inactive) | 18.2 µM (inactive) | 6.9 µM (inactive) | 1.07 µM (active) | 12.7 µM (inactive) | 1.14 µM (inactive) | 4.73 µM (inactive) | 3.22 µM (inactive) | 17.2 µM (inactive) | 1.72 µM (inactive) | 16.3 µM (inactive) | 8.17 µM (inactive) |
| COC(=O)C1CC23C=CCN4CC(C2C)C2(c5ccccc5NC12)C43 (centres undefined) | > 100 µM (inactive) | > 100 µM (inactive) | > 100 µM (inactive) | > 100 µM (inactive) | > 100 µM (inactive) | > 100 | > 100 µM (inactive) | > 100 µM (inactive) | > 100 µM (inactive) | > 100 µM (inactive) | > 100 µM (inactive) | > 100 µM (inactive) | > 100 µM (inactive) | > 100 µM (inactive) | > 100 µM (inactive) | > 100 µM (inactive) | > 100 µM (inactive) | > 100 µM (inactive) | > 100 µM (inactive) |  |
| Cn1cc(-c2ccc(CCOC3CCCCO3)cc2)c2c(C#N)cccc21 (centres undefined) | 38.3 µM (inactive) | 41.9 µM (inactive) | 48.3 µM (inactive) | > 100 µM (inactive) | 14.9 µM (inactive) | 16.6 | 41.9 µM (inactive) | 55 µM (inactive) | 48 µM (inactive) | > 100 µM (inactive) | 16.1 µM (inactive) | 17 µM (inactive) | > 100 µM (inactive) | 92.3 µM (inactive) | 22.9 µM (inactive) | > 100 µM (inactive) | > 100 µM (inactive) | 42.6 µM (inactive) | 31.8 µM (inactive) | 28 µM (inactive) |
| O=C(Oc1cccc(Cl)c1)c1cc2cc(CCl)ccc2oc1=O | 30.3 µM (inactive) | 40.6 µM (inactive) | 32.1 µM (inactive) | 42.9 µM (inactive) | 40 µM (inactive) | 88.3 | 61.7 µM (inactive) | 49.1 µM (inactive) | 24.5 µM (inactive) | 39.2 µM (inactive) | 34.9 µM (inactive) | 30.5 µM (inactive) | > 100 µM (inactive) | 41.8 µM (inactive) | 41.4 µM (inactive) | 80 µM (inactive) | > 100 µM (inactive) | 37.8 µM (inactive) | 41.5 µM (inactive) | 32.8 µM (inactive) |
| CCOC(CN(C)C(=S)Nc1cccc2ccccc12)OCC | > 10 µM (inactive) | > 10 µM (inactive) | > 10 µM (inactive) | > 10 µM (inactive) | > 10 µM (inactive) | > 10 | > 10 µM (inactive) | > 10 µM (inactive) | > 10 µM (inactive) | > 10 µM (inactive) | > 10 µM (inactive) | > 10 µM (inactive) |  | > 10 µM (inactive) | > 10 µM (inactive) | > 10 µM (inactive) | > 10 µM (inactive) | > 10 µM (inactive) | > 10 µM (inactive) | > 10 µM (inactive) |
| Fc1ccc2nc3n(c2c1)C(c1c(Cl)cccc1Cl)SC3 (centres undefined) | > 100 µM (inactive) | > 100 µM (inactive) | > 100 µM (inactive) | > 100 µM (inactive) | > 100 µM (inactive) | > 100 | > 100 µM (inactive) | > 100 µM (inactive) | 7.89 µM (inactive) | > 100 µM (inactive) | 6.71 µM (inactive) | > 100 µM (inactive) | > 100 µM (inactive) | > 100 µM (inactive) |  | > 100 µM (inactive) | > 100 µM (inactive) | > 100 µM (inactive) | > 100 µM (inactive) | > 100 µM (inactive) |
| COc1cc(/C=C/C(=O)OC2C(O)C3CC(OC(=O)c4cc(OC)c(OC)c(OC)c4)CC2N3C)cc(OC)c1OC (centres undefined) | 23 µM (inactive) | 15.3 µM (inactive) | > 50 µM (inactive) | 26.4 µM (inactive) |  | 28.1 | 33 µM (inactive) | 21.4 µM (inactive) | 36.4 µM (inactive) | 0.43 µM (active) | 46 µM (inactive) | 14.2 µM (inactive) | > 50 µM (inactive) | 18.5 µM (inactive) | > 50 µM (inactive) | > 50 µM (inactive) | 21.8 µM (inactive) | 21.8 µM (inactive) | > 50 µM (inactive) | 10.4 µM (inactive) |
| CC(C)C(=O)[C@@]1(C)SC[C@H]2CCN=C21 | > 100 µM (inactive) | > 100 µM (inactive) | > 100 µM (inactive) |  | > 100 µM (inactive) | > 100 | > 100 µM (inactive) | > 100 µM (inactive) | 34.8 µM (inactive) | > 100 µM (inactive) | 42.9 µM (inactive) | > 100 µM (inactive) | > 100 µM (inactive) | > 100 µM (inactive) | > 100 µM (inactive) |  | > 100 µM (inactive) | > 100 µM (inactive) | 74.6 µM (inactive) | 58.6 µM (inactive) |
| COC1=CC(=O)c2c(cc(COP(N)(=O)N(CCBr)CCBr)n2C)C1=O (centres undefined) | < 0.01 µM (active) | < 0.01 µM (active) | 0.484 µM (active) |  | 1.56 µM (inactive) | 0.242 | < 0.01 µM (active) | < 0.01 µM (active) | 0.242 µM (active) | 0.0188 µM (active) | < 0.01 µM (active) | 0.012 µM (active) | 0.104 µM (active) | < 0.01 µM (active) | 0.135 µM (active) | < 0.01 µM (active) | 0.0137 µM (active) | < 0.01 µM (active) | 1.66 µM (inactive) | 0.131 µM (active) |
| O=S(=O)(O)c1cc(S(=O)(=O)O)c2c(Nc3ccnc4ccccc34)ccc(S(=O)(=O)O)c2c1 | > 100 µM (inactive) | > 100 µM (inactive) | > 100 µM (inactive) | > 100 µM (inactive) | > 100 µM (inactive) | > 100 | > 100 µM (inactive) | > 100 µM (inactive) | > 100 µM (inactive) | > 100 µM (inactive) | > 100 µM (inactive) | > 100 µM (inactive) | > 100 µM (inactive) | > 100 µM (inactive) |  | > 100 µM (inactive) | > 100 µM (inactive) | > 100 µM (inactive) | > 100 µM (inactive) | > 100 µM (inactive) |
| Cc1ccc(S(=O)(=O)N(CC(O)COc2ccccc2)c2c(F)c(F)cc(F)c2F)cc1 (centres undefined) | 16.4 µM (inactive) | 16.6 µM (inactive) | 32.9 µM (inactive) | 21.3 µM (inactive) | 19.5 µM (inactive) | 20.9 | 18.7 µM (inactive) | 20 µM (inactive) | 17.2 µM (inactive) |  | < 0.01 µM (active) | 16.8 µM (inactive) | 29 µM (inactive) | 22.3 µM (inactive) |  | 18.7 µM (inactive) | 19.4 µM (inactive) | 16.7 µM (inactive) | 18.7 µM (inactive) | 20.4 µM (inactive) |
| CCOC(=O)c1sc2nc(SC)nc(Nc3ccc(OC)c(OC)c3)c2c1N | 3.95 µM (inactive) | > 100 µM (inactive) | 6.73 µM (inactive) | 6.04 µM (inactive) | 14.7 µM (inactive) | > 100 | 1.84 µM (inactive) | 1.58 µM (inactive) | > 100 µM (inactive) | > 100 µM (inactive) |  | 78 µM (inactive) | > 100 µM (inactive) | 5.51 µM (inactive) | > 100 µM (inactive) | 14.3 µM (inactive) | 12.9 µM (inactive) | < 0.01 µM (active) | 6.65 µM (inactive) | 22.4 µM (inactive) |
